From US11021481B2, “Substituted isoindolin-1-ones and 2,3-dihydro-1h-pyrrolo[3,4-c]pyridin-1-ones as HPK1 antagonists” (Nimbus Saturn, Inc., priority 2019, dated 2021)
Where a name gives a salt, the structure may show the parent alone.

molecular target: HPK1 (Homo sapiens (Human), UniProt Q92918); test: HPK1 biochemical enzyme assay (microfluidic mobility shift assay); conditions: 1.5 nM HPK1, ATP 1 mM final, 30 min preincubation, 60 min at RT, Caliper EZ Reader; read-out: HPK1 1000UMATP caliper IC50
Sequence (Q92918 whole entry): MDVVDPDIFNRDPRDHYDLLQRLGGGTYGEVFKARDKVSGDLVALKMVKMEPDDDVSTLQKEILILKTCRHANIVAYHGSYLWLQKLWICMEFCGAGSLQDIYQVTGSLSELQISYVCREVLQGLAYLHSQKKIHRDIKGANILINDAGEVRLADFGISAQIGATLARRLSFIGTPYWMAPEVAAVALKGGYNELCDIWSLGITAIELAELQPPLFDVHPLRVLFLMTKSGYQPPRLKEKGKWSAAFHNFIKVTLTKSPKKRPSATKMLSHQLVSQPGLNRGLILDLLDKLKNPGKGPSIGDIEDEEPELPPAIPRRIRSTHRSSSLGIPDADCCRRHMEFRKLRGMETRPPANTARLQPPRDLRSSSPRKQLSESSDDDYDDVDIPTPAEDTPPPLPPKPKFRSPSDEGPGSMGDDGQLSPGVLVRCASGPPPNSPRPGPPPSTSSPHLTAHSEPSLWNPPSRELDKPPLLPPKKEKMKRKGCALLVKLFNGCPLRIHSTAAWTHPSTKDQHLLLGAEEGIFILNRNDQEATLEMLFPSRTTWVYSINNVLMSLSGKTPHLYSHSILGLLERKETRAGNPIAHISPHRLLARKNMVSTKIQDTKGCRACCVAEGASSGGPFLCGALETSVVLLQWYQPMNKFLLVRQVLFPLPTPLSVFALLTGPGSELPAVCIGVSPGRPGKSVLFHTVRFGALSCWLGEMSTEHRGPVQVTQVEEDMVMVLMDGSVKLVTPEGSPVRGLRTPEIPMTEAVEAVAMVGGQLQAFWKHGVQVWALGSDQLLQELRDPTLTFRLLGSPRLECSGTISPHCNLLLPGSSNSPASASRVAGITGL
Description: HPK1 biochemical enzyme assay: HPK1 enzyme inhibition was measured using a microfluidic mobility shift assay. […] Test compounds were titrated in ten point curves (top final assay concentration 3 μM), and preincubated with enzyme/substrate mix for 30 min prior to initiation of the reaction by addition of ATP (1 mM final concentration) and substrate (1 μM final concentration; Carna Biosciences) diluted in assay buffer supplemented by MgCl2 (final assay concentration of 5 mM). Following 60 min incubation at RT, the reaction was terminated by addition of 60 µl/well termination buffer (Carna Biosciences) and signal determination using aCaliper EZ Reader (Perkin Elmer, UK).
The compound numbers correspond to the compound numbers in Table 1.

“(R)-7-((6- ((dimethylamino)- methyl)-5- (tetrahydrofuran- 3-yl)pyridin- 2-yl)amino)-4- (8-methylimidazo [1,2-a]pyridin- 3-yl)isoindolin- 1-one [I-696]” and `Cc1cccn2c(-c3ccc(Nc4ccc(N5CCC(O)CC5)cn4)c4c3CNC4=O)cnc12` [I-135, 7-[[5-(4-hydroxy-1-piperidyl)-2-pyridyl]amino]-4-(8-methylimidazo [1,2-a]pyridin-3-yl)isoindolin-1-one] cannot be ordered by IC50: less than 100 nM for the first, less than 100 nM for the second.

`O=C1NCc2c(-c3cnc4cc(F)ccn34)ccc(Nc3ccc(C4CCOC4)c(CO)n3)c21` (stereo not drawn) [I-771, 4-(7-fluoroimidazo [1,2-a]pyridin-3-yl)-7-((6-(hydroxymeth-yl]-5-(tetrahydrofuran-3-yl)pyridin-2-yl)amino)isoin-dolin-1-one] and `Cc1ccn2c(-c3ncc(Nc4ccc(N5CCO[C@@H](C(C)(C)O)C5)cn4)c4c3CNC4=O)cnc2c1F` [I-467, 4-(8-fluoro-7-methyl-imidazo[1,2-a]pyridin-3-yl)-7-[[5-[(2R)-2-(1-hydroxy-1-methyl-ethyl)morpholin-4-yl]-2-pyridyl]amino]-2,3-dihydropyrrolo [3,4-c]pyridin-l-one] cannot be ordered by IC50: less than 100 nM for the first, less than 100 nM for the second.

`CC(C)NCc1nc(Nc2ccc(-c3cnc4cc(F)ccn34)c3c2C(=O)NC3)ccc1[C@@H]1CCOC1` [I-558] and `CN(C)CCN1CCC(c2ccc(Nc3cnc(-c4ccnc5c4ccn5C)c4c3C(=O)NC4)nc2)CC1=O` (stereo not drawn) [I-386, 7-((5-(1-(2-(dimethylami-no)ethyl)-2-oxopiperidin-4-yl)pyridin-2-yl)amino)-4-(1-methyl-1H-pyrrolo[2,3-b]pyridin-4-yl)-2,3-dihydro-1H-pyrrolo[3,4-c]pyridin-1-one] cannot be ordered by IC50: less than 100 nM for the first, less than 100 nM for the second.

First: CC(C)(O)[C@@H]1CN(c2ccc(Nc3cnc(-c4cnc5ccccn45)c4c3C(=O)NC4)nc2)CCO1 [I-485, 7-[[5-[(2S)-2-(1-hydroxy-1-methyl-ethyl)morpholin-4-yl]-2-pyridyl]amino] 4-imidazo[1,2-a]pyridin-3-yl-2,3-dihydropyrrolo [3,4-c]pyridin-1-one]
Second: Cc1cc(Nc2cnc(-c3ccnc4c3ccn4C)c3c2C(=O)NC3)nc(N2CC[C@@H]3CNC[C@@H]32)c1 [I-642, 7-((6-((3aR,6aR)-hcxahydropyrr-olo[3,4-b]pyrrol-1(2H)-yl)-4-methylpyridin-2-yl)amino)-4-(1-methyl-1H-pyrrolo[2,3-b]pyridin-4-yl)-2,3-dihydro-1H-pyrrolo[3,4-c]pyridin-1-one]
The IC50 of the first is lower: less than 100 nM for the first, 100 to 1000 nM for the second. The first is the more potent here.

`CNCc1nc(Nc2cnc(-c3ccnc4c3ccn4C)c3c2C(=O)NC3)ccc1[C@@H]1CCOC1` (single isomer, unassigned) [I-813] and `CN1CCO[C@@]2(CCCN(c3ccc(Nc4ccc(-c5cnc6cc(F)ccn56)c5c4C(=O)NC5)nc3)C2)C1` [I-506, (S)-4-(7-fluoroimidazo [1,2-a]pyridin-3-yl)-7-((5-(4-methyl-1-oxa-4,8-diazaspiro[5.5]undecan-8-yl)pyridin-2-yl)amino)isoin-dolin-1-one] cannot be ordered by IC50: less than 100 nM for the first, less than 100 nM for the second.

`Cn1ccc2c(-c3ccc(Nc4ncc(N5CCC(O)CC5)cc4F)c4c3CNC4=O)ccnc21` [I-424, 7-((3-fluoro-5-(4-hydroxy-piperidin-1-yl)pyridin-2-yl)amino)-4-(1-methyl-1H-pyrrolo[2,3-b]pyridin-4-yl)isoindolin-1-one] and `C[C@H](O)[C@@H]1CCCN(c2ccc(Nc3ccc(-c4cnc5cc(F)ccn45)c4c3C(=O)NC4)nc2)C1` (stereo in doubt) [I-363, 4-(7-fluoroimidazo [1,2-a]pyridin-3-yl)-7-((5-((S)-3-((R)-1-hydroxyethyl)piperidin-1-yl)pyridin-2-yl)amino)isoin-dolin-1-one] cannot be ordered by IC50: less than 100 nM for the first, less than 100 nM for the second.

`O=C1NCc2c(-c3cnc4cc(F)ccn34)ccc(Nc3ccc([C@H]4CCOC4)c(CN4CCC[C@H]4CO)n3)c21` [I-827, 4-(7-fluoroimidazo [1,2-a]pyridin-3-yl)-7-((6-(((S)-2-(hydroxymeth-yl)pyrrolidin-1-yl]methyl)-5-((R)-THF-3-yl)pyridin-2-yl)amino)isoin-dolin-1-one] and `Cc1cn(C)c2nccc(-c3ccc(Nc4ccc(N5CCNCC5)cn4)c4c3CNC4=O)c12` [I-98] cannot be ordered by IC50: less than 100 nM for the first, less than 100 nM for the second.

Compared with `Cc1cc(Nc2cnc(-c3ccnc4c3ccn4C)c3c2C(=O)NC3)nc(N2CC[C@@H]3CN(C)C[C@@H]32)c1` [I-644, 4-(1-methyl-1H-pyrrolo[2,3-b]pyridin-4-yl)-7-((4-methyl-6-((3aR,6aR)-5-methylhexahydropyrrolo[3,4-b]pyrrol-1(2H)-yl)pyridin-2-yl)amino)-2,3-dihydro-1H-pyrrolo[3,4-c]pyridin-1-one], `CN(C)Cc1nc(Nc2ccc(-c3ccnc4c3ccn4C)c3c2C(=O)NC3)ccc1[C@H]1CCOC1` [I-546, (R)-7-((6-((dimethylamino)-methyl)-5-(tetrahydrofuran-3-yl)pyridin-2-yl)amino)-4-(1-methyl-1H-pyrrolo[2,3-b]pyridin-4-yl)isoindolin-1-one] is lower in IC50: 100 to 1000 nM for the first, less than 100 nM for the second.

`Cn1ccc2c(-c3ncc(Nc4ccc(N5CCO[C@H](C(C)(C)O)C5)cn4)c4c3CNC4=O)cccc21` [I-484, 7-[[5-[(2S)-2-(1-hydroxy-1-methyl-ethyl)morpholin-4-yl]-2-pyridyl]amino]-4-(1-methylindol-4-yl)-2,3-dihydropyrrolo [3,4-c]pyridin-l-one] and `Cc1ccn2c(-c3ccc(Nc4ccc(N5CCO[C@@H](CO)C5)cn4)c4c3CNC4=O)cnc2c1F` [I-460, 4-(8-fluoro-7-methyl-imidazo[1,2-a]pyridin-3-yl)-7-[[5-[(2R)-2-(hydroxymeth-yl)morpholin-4-yl]-2-pyridyl]amino] isoindolin-1-one] cannot be ordered by IC50: less than 100 nM for the first, less than 100 nM for the second.

`Cc1cnc2c(-c3ccc(Nc4ccc(N5CCC(O)CC5)cn4)c4c3CNC4=O)cccn12` [I-215, 7-[[5-(4-hydroxy-1-piperidyl)-2-pyridyl]-amino]-4-(3-methylimidazo [1,2-a]pyridin-8-yl)isoindolin-1-one] and `O=C1NCc2c(-c3cnn4c3CCCCC4)ccc(Nc3ccc(N4CCC(O)CC4)cn3)c21` [I-283, 7-((5-(4-hydroxy-piperidin-1-yl)pyridin-2-yl)amino)-4-(5,6,7,8-tetrahydro-4H-pyrazolo[1,5-a]azepin-3-yl)isoindolin-1-one] fall in the same range of IC50: 100 to 1000 nM for the first, 100 to 1000 nM for the second.

`CC(C)NCc1nc(Nc2ccc(-c3cnc4cc(F)ccn34)c3c2C(=O)NC3)ccc1C1CCOCC1` [I-847, 4-(7-fluoroimidazo [1,2-a]pyridin-3-yl)-7-[[6-[(isopropylamino)-methyl]-5-tetrahydropyran-4-yl-2-pyridyl]amino] isoindolin-1-one Formic acid salt] and `C[C@H]1CN([C@@H](C)c2ccc(Nc3ccc(-c4cnc5cc(F)ccn45)c4c3C(=O)NC4)nc2)CCO1` [I-522, 4-(7-fluoroimidazo [1,2-a]pyridin-3-yl)-7-((5-((S)-1-((S)-2-methylmorpho-lino)ethyl)pyri-din-2-yl)amino) isoin-dolin-1-one] cannot be ordered by IC50: less than 100 nM for the first, less than 100 nM for the second.

`Cn1ccc2c(-c3ccc(Nc4ccc(N5CCC(O)(CN6CCOCC6)CC5)cn4)c4c3CNC4=O)ccnc21` [I-291, 7-((5-(4-hydroxy-4-(morpholino-methyl)piperi-din-1-yl)pyridin-2-yl)amino)-4-(1-methyl-1H-pyrrolo[2,3-b]pyridin-4-yl)isoindolin-1-one] and `C[C@@H]1CC[C@@](C)(O)CN1c1ccc(Nc2ccc(-c3cnn4c3CCCC4)c3c2C(=O)NC3)nc1` [I-598, 7-((5-((2R,5R)-5-hydroxy-2,5-dimethyl-piperidin-1-yl)pyridin-2-yl)amino)-4-(4,5,6,7-tetrahydropyra-zolo[1,5-a]pyridin-3-yl)isoindolin-1-one] cannot be ordered by IC50: less than 100 nM for the first, less than 100 nM for the second.

`CN(C)C(C)(C)[C@@H]1CN(c2ccc(Nc3ccc(-c4cnc5cnccn45)c4c3C(=O)NC4)nc2)CCO1` [I-617, (S)-7-((5-(2-(2-(dimethylami-no)propan-2-yl)morpho-lino)pyridin-2-yl)amino)-4-(imidazo[1,2-a]pyrazin-3-yl)isoindolin-1-one] and `CN(C)Cc1nc(Nc2ccc(-c3cnc4cc(F)ccn34)c3c2C(=O)NC3)ccc1N1CCN(C)C(=O)C1` [I-795, 7-((6-((dimethylamino)-methyl)-5-(4-methyl-3-oxopiperazin-1-yl)pyridin-2-yl)amino)-4-(7-fluoroimidazo [1,2-a]pyridin-3-yl)isoindolin-1-one] cannot be ordered by IC50: less than 100 nM for the first, less than 100 nM for the second.

`O=C1NCc2c(-c3cnc4cnccn34)ccc(Nc3ccc(N4CC[C@H](F)[C@@H](O)C4)cn3)c21` [I-435, 7-((5-((3S,4S)-4-fluoro-3-hydroxypiperidin-1-yl)pyridin-2-yl)amino)-4-(imidazo[1,2-a]pyrazin-3-yl)isoindolin-1-one] and `CN(C)C(C)(C)[C@H]1CN(c2ccc(Nc3ccc(-c4cnc5cnccn45)c4c3C(=O)NC4)nc2)CCO1` [I-618, (R)-7-((5-(2-(2-(dimethylami-no)propan-2-yl)morpho-lino)pyridin-2-yl)amino)-4-(imidazo[1,2-a]pyrazin-3-yl)isoindolin-1-one] cannot be ordered by IC50: less than 100 nM for the first, less than 100 nM for the second.

`CN(C)C(C)(C)[C@@]1(O)CCCN(c2ccc(Nc3ccc(-c4cnc5cc(F)ccn45)c4c3C(=O)NC4)nc2)C1` [I-716, (R)-7-((5-(3-(2-(dimethylainino)propan-2-yl)-3-hydroxy-piperidin-1-yl)pyridin-2-yl)amino)-4-(7-fluoroimidazo [1,2-a]pyridin-3-yl)isoindolin-1-one] and `CN(C)Cc1nc(Nc2ccc(-c3cnc4cnccn34)c3c2C(=O)NC3)ccc1[C@@H]1CCOC1` [I-714, (S)-7-((6-((dimethylamino)-methyl)-5-(tetrahydrofuran-3-yl)pyridin-2-yl)amino)-4-(imidazo[1,2-a]pyrazin-3-yl)isoindolin-1-one] cannot be ordered by IC50: less than 100 nM for the first, less than 100 nM for the second.
